Data from patent publication US20200022964A1, “COMPOSITIONS AND METHODS FOR TREATMENT OF INFLAMMATORY AUTOIMMUNE DISEASES” (New York University, priority 2018, published 2020).

Experiments:
TNF-α-induced genes = test: RNA-seq of TNF-α-treated BMDMs; type: cell-based, mice; conditions: TNF-α 10 ng/mL; FFD 10 μM, TFD 1 μM; 24 hours
Description: (§1) Primary bone marrow derived macrophages (BMDMs) extraction. BMDMs were isolated from C57BL/6 and TNF-tg mice. After mice were sacrificed by cervical dislocation, the tibia and femur were isolated and both ends of the bones were cut to open the medullary cavity. Bone marrow cells were collected by centrifuge at 13000 g for 90 seconds and seeded in 6-well plates. Prior to their use in experiments, M-CSF (10 ng/ml, 576406, Biolegend) was added for 6 days to the BMDM culture medium.
RNAseq and Transcription factors enrichment analysis. […] Total RNA was extracted by RNeasy Mini Kit (74106, Qiagen), and gene expression profiling analyzed by RNA-seq was performed by the NYU Genome Technology Center for RNA sequencing (Illumina HiSeq4000 Sequencing, HiSeq 4000 Single Read 50 Cycle Lane).

TNF-α [1] = test: qRT-PCR of TNF-α-induced IL-1β, IL-6 and Nos-2 mRNA in BMDMs; type: cell-based, mice; conditions: TNF-α 10 ng/mL; FFD 1, 10 μM; TFD 0.1, 1 μM; 24 hours
Description: as §1
(§2) qRT-PCR. Total RNA was extracted by RNeasy plus mini kit (74106, QIAGEN) and cDNA was synthesized using SuperScript® Reverse Transcriptase (M314C, promega Corporation). SYBR® Green PCR Master Mix (4309155, Applied Biosystems) was used to perform quantitative real-time PCR (qRT-PCR) and the reaction was performed on a StepOnePlus™ real-time PCR Systems (Applied Biosystems). The mRNA expression level of target genes was calculated by ΔΔCT and fold changes of mRNA levels were normalized to GAPDH.

TNF-α [2] = test: TNF-α induced cytokine expression and release in RAW264.7 cells (incl. H1R1 siRNA and cPLA2 knockout); type: cell-based; conditions: FFD 10 μM; for effect of suppression of H1R1 on the inhibition of TNF-induced cytokine release: RAW264.7 cells with H1R1 siRNAs
Description: as §2
Knock down of H1R1 by siRNA. BMDMs were transfected with siH1R1, or scrambled control siRNA (scRNAi) using lipofectamine 2000 (11668-019, Invitrogen) according to manufacturer's specifications. After 24 hours, supernatants and lysate were collected to detect cytokine secretion and protein expression, respectively.
Knock out of cPAL2 by CRISPR-Cas9. Knockout cells were generated in accordance with a previously published protocol. gRNA was inserted into the lentiCRISPR v2 vector. Packaging the inserted vector into lentivirus was completed by co-transfecting the lentiCRISPR v2, VSVG and ΔR6.7 in 293T cells. After packaging, we transfected the virus into RAW264.7 cells over 8 hours. Puromycin (2 μg/ml) was used to select the stably transfected RAW264.7 cells

[3] = tested on: osteoclastogenesis in BMDMs; test: Osteoclastogenesis in BMDMs (TRAP staining); type: cell-based, mice; conditions: RANKL 100 ng/mL and TNF-α 10 ng/mL; FFD 10 μM, TFD 1 μM; 4 days
Description: Osteoclastogenesis. […] The cells were fixed with formalin and stained for tartrate-resistant acid phosphatase (TRAP) with a TRAP solution containing 100 mM sodium acetate buffer (pH 5.0), 50 mM sodium tartrate, 0.1 mg/ml sodium naphtol AS-MX phosphate, 0.6 mg/ml Fast Violet LB, and 0.1% Triton X-100. TRAP-positive cells appeared dark red and TRAP-positive multinucleated cells containing more than three nuclei (TRAP-MNCs) were visualized using light microscopy.

CD4+ T cells = test: Spleen CD4+ T cell differentiation in vitro and splenic T cell composition in vivo; type: cell-based, mice
Description: Spleen CD4^+T cell differentiation. Inducing spleen naive CD4^+T cell differentiation into T cell subsets was performed. Briefly, after preparing the splenic naïve CD4^+T cells from wild-type 8-12 week old C57BL/6 mice, the following cytokines were added to induce naive CD4^+T cell differentiation into T cell subsets: IL-2 (20 ng/mL), IL-12 (15 ng/mL), and anti-IL4 (5 μg/mL) for Thl; IL-2 (20 ng/mL), IL-4 (10 ng/mL), and anti-IFNγ (5 μg/mL) for Th2; IL-6 (20 ng/mL), TGFβ (3 ng/mL), anti-IFNγ (5 μg/mL), and anti-IL4 (5 μg/mL) for Th17; IL-2 (20 ng/mL), TGFβ (15 ng/mL), anti-IFNγ (5 μg/mL), and anti-IL4 (5 μg/mL) for Treg. […] Before collecting cells for fluorescence staining, 1 μL Golgi stop from Fixation/Permeabilization Solution Kit with BD GolgiPlug™ (555028,BD Biosciences) was added to each well and incubated in the plate for 4 hours. Cells were stained according to the kit specifications. For each T cell subtype, the combination of fluorescence dyes was as follows: FITC-CD4 (M1004502, Sungene) and Percp-cy5.5-IFNγ (45-7311-82, eBioscience) for Th1; FITC-CD4 and PE-IL4 (554389, BD pharmingen) for Th2; FITC-CD4 and PE-IL-17A (12-7177-81, eBioscience) for Th17; FITC-CD4, PE-CD25 (102008, Biolegend) and Alex-Fluo647-FoxP3 (51-5773-80, eBioscience) for Treg. Then the samples were analyzed at NYU core facilities using a FACS Calibur cell analyzer with CellQuest software. […] Frozen splenic tissue specimens from TNFα Tg mice treated with or without TFD or FFD were stained and analyzed dual immunofluorescence. All sections were permeabilized with 0.1% NP40 in PBS, and then blocked in 5% donkey serum for 30 min at RT, followed by incubated with anti-IFNg (Th1), anti-IL-4 (Th2), anti-IL17 (Th17) and anti-foxp3 (Treg) diluted in 5% donkey serum at 4° C. overnight. On the second day, after washed 3 times in PBS, the sections were incubated with Cy2-conjugated donkey anti-rat IgG for 30 min at RT. After wash, the sections were furthered stained with FITC conjugated anti-CD4 for I hour at RT. To determine the macrophage polarization, sections were double stained with anti-CD68 and iNOS (M1) or CD206 (M2). DAPI were used to stain the nuclei. The fluorescence intensity of cells was quantified by Image J software.

Row | SMILES | expression of TNF-α-induced genes (RNA-seq) (TNF-α-induced genes) | TNF-α-induced mRNA expressions of IL-1β, IL-6 and Nos-2 (TNF-α [1]) | effect of suppression of H1R1 on the inhibition of TNF-induced cytokine release (TNF-α [2]) | inhibition of TNF-α activity (IL-1β, IL-6 release) in cPLA2 knockout cells (TNF-α [2]; cPLA2 KO RAW264.7 cells) | TNF-α-mediated osteoclastogenesis [3] | differentiation of IFNγ-positive Th1 subpopulation (CD4+ T cells) | differentiation of Th2, Th17 and regulatory T cells (CD4+ T cells)
1 | CC(C)(C(=O)O)c1ccc(C(O)CCCN2CCC(C(O)(c3ccccc3)c3ccccc3)CC2)cc1 (stereo not shown) [fexofenadine] | clearly downregulated | dose-dependently inhibited | did not affect | entirely or almost entirely lost | markedly inhibited | significantly suppressed | negligible effects
2 | CC(C)(C)c1ccc(C(O)CCCN2CCC(C(O)(c3ccccc3)c3ccccc3)CC2)cc1 (stereo not shown) [terfenadine] | clearly downregulated | dose-dependently inhibited | did not affect | – | markedly inhibited | significantly suppressed | negligible effects
